In the OPERA property sets (Mansouri et al. 2018):

In order of rising logP:
1. CC(C)C1C(=O)NC(=O)NC1=O  -0.02
2. CC(C)(C)C1C(=O)NC(=O)NC1=O  0.28
3. CC(C)C1(C)C(=O)NC(=O)NC1=O  0.54
4. CC(C)(C)C1(C)C(=O)NC(=O)NC1=O  0.8
5. CC(C)(C)C1(Cl)C(=O)NC(=O)NC1=O  0.82
6. CCC1(C(C)(C)C)C(=O)NC(=O)NC1=O  1.38
7. CCC1(CC)C(=O)NC(=S)NC1=O  1.5
8. CC(C)C1(C(C)C)C(=O)NC(=O)NC1=O  1.56
9. C=CCC1(C(C)(C)C)C(=O)NC(=O)NC1=O  1.64
10. CCC(C)C1(CC)C(=O)NC(=O)NC1=O (stereo not drawn)  1.65
11. CCCC1(CCC)C(=O)NC(=O)NC1=O  1.75
12. CCCC1(CCC)C(=O)NC(=S)NC1=O  2.66
13. CCCCC1(CCCC)C(=O)NC(=O)NC1=O  2.7
